Data reported in patent US11021511B2, “Cyclic dinucleotides as sting agonists” (Janssen Biotech, Inc., priority 2017, dated 2021).

Assays:
primary human PBMC = test: PBMC activation, CD54 upregulation on monocytes by flow cytometry; type: cell-based; settings: 20 μM, 48 h, relative to resting cells
Description: Concurrently, PBMC were isolated as described previously. To stimulate the PBMC, 10,000,000 cells were dispensed into 400 μL/well of flat-bottom, tissue culture treated, 24-well plates. Test compounds were added in a volume of 100 μL, then the cultures were incubated for 48 h at 37° C., 5% CO2. Supernatants were harvested. Cells were measured for activation marker upregulation using flow cytometery. Briefly, cells were stained with fluorescently labeled antibodies directed to CD56, CD19, CD3, CD8a, CD14, CD69, CD54, CD161, CD4 and CD80. Samples were analyzed on an Attune N×T flow cytometer (Thermo Fisher, Carlsbad, Calif.)
PBMCs were stimulated with 20 μM of CDN for 48 h. Cells were assessed by flow cytometry for upregulation of CD54 on monocytes. The fold increase in Mean Fluoresence Intensity was calculated relative to the levels on resting cells. The data is an average of two independent donors.

THP1-Blue ISG cells = test: Human interferon-β induction assay; type: cell-based; settings: total cumulative IFN-β induction over the dose range tested (0.78 to 50 μM) in THP-1 Blue cells
Description: THP1-Blue ISG cells are used to measure the secretion of IFN-β into the culture supernatant following STING pathway activation. To run the assay, anti-IFN-β capture antibodies were coated on 96 well MultiArray plates (Mesoscale Discovery). After a one hour incubation, plates were washed and 50 μL supernatant from the STING human cell reporter assay plates or IFN-β standards were mixed with 20 μL Sulfotag-conjugated detection antibody in the coated plates. Plates were incubated, shaking for 2 h, washed, and read buffer was applied. Electrochemiluminescence was measured on the SectorImager.

human STING = human STING (Homo sapiens (Human), UniProt Q86WV6, H232R); test: human STING SPA binding assay
Description: The HIS tag is cleaved after purification and prior to biotinylation.
Test compounds (80 nL) were added with an acoustic dispenser (EDC Biosystems) in 100% DMSO for a final assay concentration of 1% DMSO. Plates were centrifuged for 1 min and incubated for 60 min at room temperature. Finally, (2 μL) polystyrene streptavidin SPA beads (PerkinElmer RPNQ0306) were added and plates were sealed and centrifuged for 1 min at room temperature. Plates were dark adapted for 2 h and read on a ViewLux (Perkin Elmer) for 12 min per plate.

[1] = system: human STING pathway in THP1-ISG cells; test: STING human cell reporter assay; type: cell-based; settings: SEAP reporter, 24 h
Description: Agonism of the human STING pathway is assessed in THP1-ISG cells (Invivogen, cat #thp-isg) derived from human THP1 monocyte cell line by stable integration of an interferon regulatory factor (IRF)-inducible SEAP reporter construct. THP1-Blue ISG cells express a secreted embryonic alkaline phosphatase (SEAP) reporter gene under the control of an ISG54 minimal promoter in conjunction with five interferon (IFN)-stimulated response elements. As a result, THP1-Blue ISG cells allow the monitoring of IRF activation by determining the activity of SEAP. The levels of IRF-induced SEAP in the cell culture supernatant are readily assessed with alkaline phosphatase detection medium, a SEAP detection reagent. These cells are resistant to Zeocin. […] To run the assay, 60,000 cells were dispensed in 30 μL/well of a white, opaque bottom tissue culture treated 384-well plate.
Test compounds were added in a volume of 10 μL (1% DMSO final concentration). Compounds are initially prepared in 100% DMSO, spotted on an intermediate dilution plate and then diluted in media prior to transfer. The assay was incubated for 24 h at 37° C., 5% CO2 then plates were centrifuged at 1200 rpm (120×g) for 5 min. […]

human STING, sequence (Q86WV6 139-379 H232R): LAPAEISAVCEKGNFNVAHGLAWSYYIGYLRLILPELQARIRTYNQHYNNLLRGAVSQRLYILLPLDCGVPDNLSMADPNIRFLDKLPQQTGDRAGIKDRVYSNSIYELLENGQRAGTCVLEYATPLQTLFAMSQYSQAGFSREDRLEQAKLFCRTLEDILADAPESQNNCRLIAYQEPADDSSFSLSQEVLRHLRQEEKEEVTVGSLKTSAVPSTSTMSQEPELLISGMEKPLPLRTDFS

Structure (SMILES) | human IFN-β (ranking value) (THP1-Blue ISG cells) | also measured
Nc1nc2c(ncn2[C@@H]2O[C@@H]3COP(=O)(O)O[C@H]4[C@@H](O)[C@H](n5cnc6c(N)ncnc65)O[C@@H]4COP(=O)(O)O[C@@H]2[C@@H]3O)c(=O)[nH]1 [4-2′3′-cGAMP, (2′,3′)cyclic guanosine monophosphate-adenosine monophosphate] |  | MFI, fold increase of CD54 on monocytes (primary human PBMC): 4.5
COC1C2COP(=O)(S)OC3C(COP(=O)(S)OC1C(n1cnc4c(=O)[nH]c(N)nc41)O2)OC(n1cnc2c(N)ncnc21)C3F (single isomer, unassigned) [Compound 6b] | 904 | 
CC1(O)C2OP(=O)(O)OCC3OC(n4cnc5c(=O)[nH]c(N)nc54)C(OP(=O)(O)OCC2OC1n1cnc2c(N)ncnc21)C3O (centres unmarked) [Compound 1] |  | IC50 (human STING): 54.5 µM; EC50 [1]: 1.81 µM
COC1C2COP(=O)(S)OC3C(COP(=O)(S)OC1C(n1cnc4c(=O)[nH]c(N)nc41)O2)OC(n1cnc2c(N)ncnc21)C3F (single isomer, unassigned) [Compound 6d] | 3039 | 
COC1C2COP(=O)(S)OC3C(COP(=O)(S)OC1C(n1cnc4c(=O)[nH]c(N)nc41)O2)OC(n1cnc2c(N)ncnc21)C3F (single isomer, unassigned) [Compound 6a] | 2427 | 
COC1C2COP(=O)(S)OC3C(COP(=O)(S)OC1C(n1cnc4c(=O)[nH]c(N)nc41)O2)OC(n1cnc2c(N)ncnc21)C3F (single isomer, unassigned) [Compound 6c] | 4266 | 
COC1C2COP(=O)(O)OC3C(COP(=O)(O)OC1C(n1cnc4c(=O)[nH]c(N)nc41)O2)OC(n1cnc2c(N)ncnc21)C3F (centres unmarked) [Compound 5] | 1024 | 
